Measured values taken from patent publication US20130096159A1, “INHIBITORS OF HUMAN 12-LIPOXYGENASE” (The United States of America, as represented the Secretary …, priority 2010, published 2013).
Blank lines part the entries; values can stand above or below the compound they belong to.

Tests used:
human 12-lipoxygenase = biological target: T1, human 12-lipoxygenase (Homo sapiens, UniProt P18054); experiment: human 12-lipoxygenase inhibition (12hLO) assay, absorbance at 234 nm; assay type: biochemical
T1 sequence (P18054 1-663): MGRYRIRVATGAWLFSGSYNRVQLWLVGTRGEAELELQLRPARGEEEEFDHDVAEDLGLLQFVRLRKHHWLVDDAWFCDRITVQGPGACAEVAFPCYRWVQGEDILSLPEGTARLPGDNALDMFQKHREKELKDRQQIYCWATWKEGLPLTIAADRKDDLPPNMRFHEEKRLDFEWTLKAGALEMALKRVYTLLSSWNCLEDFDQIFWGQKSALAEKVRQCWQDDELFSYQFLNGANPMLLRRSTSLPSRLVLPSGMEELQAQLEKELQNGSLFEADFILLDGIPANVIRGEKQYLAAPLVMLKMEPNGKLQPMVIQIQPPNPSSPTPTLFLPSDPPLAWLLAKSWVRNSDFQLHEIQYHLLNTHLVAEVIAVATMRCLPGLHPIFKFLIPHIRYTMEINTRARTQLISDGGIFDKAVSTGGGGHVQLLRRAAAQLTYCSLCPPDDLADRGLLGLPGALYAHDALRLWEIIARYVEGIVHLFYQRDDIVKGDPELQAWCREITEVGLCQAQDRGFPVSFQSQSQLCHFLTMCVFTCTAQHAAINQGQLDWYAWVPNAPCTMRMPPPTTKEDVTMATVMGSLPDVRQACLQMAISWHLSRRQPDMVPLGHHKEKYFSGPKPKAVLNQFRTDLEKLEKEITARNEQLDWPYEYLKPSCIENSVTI

Caco-2 = Caco-2 permeability; assay type: in vitro ADME
[1] = aqueous kinetic solubility; assay type: physicochemical
[2] = in vivo PK, IP administration in CD1 mice; details: IP 30 mg/kg
mouse plasma stability = assay type: in vitro ADME
PBS buffer stability = assay type: physicochemical
human 5-lipoxygenase = biological target: T2, human 5-lipoxygenase (Homo sapiens, UniProt P09917); experiment: 5hLO inhibition screen; assay type: biochemical; details: Table 2
T2 sequence (P09917 1-674): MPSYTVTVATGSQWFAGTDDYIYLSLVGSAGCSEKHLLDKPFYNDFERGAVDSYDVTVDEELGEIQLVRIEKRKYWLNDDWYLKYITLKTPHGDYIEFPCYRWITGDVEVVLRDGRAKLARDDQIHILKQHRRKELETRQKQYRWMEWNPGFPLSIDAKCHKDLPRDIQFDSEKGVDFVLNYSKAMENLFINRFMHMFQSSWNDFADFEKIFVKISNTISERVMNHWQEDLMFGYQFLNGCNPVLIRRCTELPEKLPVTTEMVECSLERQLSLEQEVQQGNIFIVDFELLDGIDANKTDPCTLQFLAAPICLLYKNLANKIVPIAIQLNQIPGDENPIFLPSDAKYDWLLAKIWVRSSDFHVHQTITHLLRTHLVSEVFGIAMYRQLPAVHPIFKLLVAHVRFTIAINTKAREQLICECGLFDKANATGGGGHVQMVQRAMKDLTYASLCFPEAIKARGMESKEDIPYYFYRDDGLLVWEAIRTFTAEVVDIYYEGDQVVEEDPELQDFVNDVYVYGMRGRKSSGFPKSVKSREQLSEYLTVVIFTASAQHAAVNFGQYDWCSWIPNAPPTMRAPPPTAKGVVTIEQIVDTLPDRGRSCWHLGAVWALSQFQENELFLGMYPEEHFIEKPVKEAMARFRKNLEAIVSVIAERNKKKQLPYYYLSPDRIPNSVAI

[3] = mouse liver microsome stability; assay type: in vitro ADME; details: liver microsomes, read-out: mouse liver microsome stability (T1/2)
Human islets = experiment: gene expression in cytokine-stimulated human islets, Taqman real time PCR; assay type: cell-based; details: TNF-α
Method: Human islets were incubated for 22 hours following stimulation with the inflammatory cytokines IFN-γ, TNF-α, and IL-1-β alone or in the presence of compound 1 or compound 9. Control islets were incubated for 22 hours in the absence of inflammatory cytokines or compounds. Following the incubation, gene expression for 12-LO, 15-LO, 5-LO, IL-12p40, and IFN-γ were determined using Taqman real time PCR.

human 15-lipoxygenase-2 = biological target: T3, human 15-lipoxygenase-2 (Homo sapiens, UniProt O15296); experiment: 15hLO-2 inhibition screen; assay type: biochemical; details: Table 2
T3 sequence (O15296 1-676): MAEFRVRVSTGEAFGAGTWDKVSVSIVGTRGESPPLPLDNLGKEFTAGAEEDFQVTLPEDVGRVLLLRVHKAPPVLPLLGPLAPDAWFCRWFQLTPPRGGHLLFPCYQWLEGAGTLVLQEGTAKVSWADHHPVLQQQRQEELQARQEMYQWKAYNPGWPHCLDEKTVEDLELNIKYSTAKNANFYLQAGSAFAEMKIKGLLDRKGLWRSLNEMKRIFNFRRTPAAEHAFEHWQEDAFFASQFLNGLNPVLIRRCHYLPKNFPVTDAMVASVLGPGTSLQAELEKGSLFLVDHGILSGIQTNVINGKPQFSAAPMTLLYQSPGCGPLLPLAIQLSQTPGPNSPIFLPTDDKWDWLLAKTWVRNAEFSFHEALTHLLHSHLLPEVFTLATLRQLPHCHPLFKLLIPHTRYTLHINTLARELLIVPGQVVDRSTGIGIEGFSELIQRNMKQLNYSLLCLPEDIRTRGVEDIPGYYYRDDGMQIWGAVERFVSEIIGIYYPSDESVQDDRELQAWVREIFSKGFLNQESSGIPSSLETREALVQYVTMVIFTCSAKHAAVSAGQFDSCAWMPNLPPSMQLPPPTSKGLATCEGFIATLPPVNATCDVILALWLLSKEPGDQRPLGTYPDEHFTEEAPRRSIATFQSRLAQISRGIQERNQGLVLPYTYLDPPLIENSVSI

recombinant human cPLA2 = biological target: T4, recombinant human cPLA2 (Homo sapiens, UniProt P47712); experiment: cPLA2 enzymatic activity assay; assay type: biochemical; details: 5 min of incubation, FIG. 8
T4 sequence (P47712 1-749): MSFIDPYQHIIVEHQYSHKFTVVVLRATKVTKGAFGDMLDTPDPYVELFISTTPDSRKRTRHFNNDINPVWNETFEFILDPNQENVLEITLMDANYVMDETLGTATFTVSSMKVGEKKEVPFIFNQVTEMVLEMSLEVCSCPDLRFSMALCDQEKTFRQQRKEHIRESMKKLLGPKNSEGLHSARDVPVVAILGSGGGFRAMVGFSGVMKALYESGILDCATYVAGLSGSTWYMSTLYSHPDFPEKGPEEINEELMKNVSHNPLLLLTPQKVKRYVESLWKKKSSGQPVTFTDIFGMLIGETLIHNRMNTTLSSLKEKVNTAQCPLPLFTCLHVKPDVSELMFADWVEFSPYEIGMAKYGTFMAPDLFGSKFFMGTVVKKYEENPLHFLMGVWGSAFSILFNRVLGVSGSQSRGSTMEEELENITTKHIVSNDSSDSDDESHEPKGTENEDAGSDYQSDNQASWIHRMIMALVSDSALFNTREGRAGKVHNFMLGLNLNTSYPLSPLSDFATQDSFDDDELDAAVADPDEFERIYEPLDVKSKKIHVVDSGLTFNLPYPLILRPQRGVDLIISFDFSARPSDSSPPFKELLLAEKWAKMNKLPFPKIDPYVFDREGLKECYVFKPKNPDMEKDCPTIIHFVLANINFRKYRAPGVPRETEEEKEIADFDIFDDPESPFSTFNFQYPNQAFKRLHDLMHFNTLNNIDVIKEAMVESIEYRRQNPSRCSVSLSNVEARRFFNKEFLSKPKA
Method: A., et al., Biochemistry, 2011, 50: 1731-1738 with the following differences. The inhibitors in solution in DMSO were added at a final concentration of 50 μM right before the recombinant enzyme was added to initiate the reaction. After 5 min of incubation, the products of reaction were analyzed, and the results depicted in FIG. 8.

[4] = relative to control islets, IFN-γ, IL-1-β stimulation, 22 hours

times more potent as an inhibitor of 12-lipoxygenase than the dextrorotatory enantiomer (human 12-lipoxygenase; levorotatory vs dextrorotatory enantiomer): more than 58 times | cell permeability (in words) (Caco-2): good | Caco-2 (Papp 10^−6 m/s @ pH 7.4) (Caco-2; pH 7.4): 8.8 10^−6 m/s | aqueous kinetic solubility (in words) [1]: acceptable | t1/2 (h) (brain) ([2]; brain): 1.7 h | t1/2 (h) (plasma) ([2]; plasma): 3.5 h | tmax (h) [plasma] ([2]; plasma): 0.25 h | Tmax ([2]; mouse, brain): 30 min | Kp at 24 h ([2]; mouse, brain/plasma, average [b/p] ratio over 8 time points (24 h period)): 0.01 | stability in mouse plasma (in words) (mouse plasma stability): excellent | stability in PBS buffer (in words) (PBS buffer stability): excellent | PBS-pH 7.4 stability: % remaining after 48 h (PBS buffer stability; PBS pH 7.4, 48 h): 100% | IC50 (human 5-lipoxygenase): > 250 µM | half-life [3]: < 10 min
Compound: CC(=O)NC(c1cccs1)c1cc(Br)c2cccnc2c1O (single isomer, unassigned) [Compound 36, N-((5-bromo-8-hydroxyquinolin-7-yl)(thiophen-2-yl)methyl)acetamide]
crossing of the blood-brain barrier [2]: does not efficiently cross the blood-brain barrier

selectivity for inhibition of human 12-lipoxygenase as compared with human 5-lipoxygenase, 15-lipoxygenase-1 and 15-lipoxygenase-2 (human 12-lipoxygenase): exhibited selectivity | IC50 (human 12-lipoxygenase; 12hLO Inhibition, Table 1, read-out: IC50 (μM) [± SD μM]): 1 µM | IC50 (human 15-lipoxygenase-2): > 150 µM | IC50 (human 5-lipoxygenase): > 150 µM
Compound: CCC(=O)NC(c1ccco1)c1cc(Cl)c2cccnc2c1O (stereo not drawn) [Compound 9, N-((5-chloro-8-hydroxyquinolin-7-yl)(furan-2-yl)methyl)propionamide]
reduction in IFN-γ expression (Human islets; induced by IFN-γ, IL-1-β): 4 fold | reduction in IL-12p40 mRNA expression (Human islets; induced by IFN-γ, IL-1-β): 40 fold | Change in Gene Expression 5-LO (Human islets; [4]): 1 | Change in Gene Expression 12-LO (Human islets; [4]): 12 | Change in Gene Expression 15-LO (Human islets; [4]): 4 | Change in Gene Expression IFN-γ (Human islets; [4]): 4 | Change in Gene Expression IL-12p40 (Human islets; [4]): 3

inhibition at 50 µM (recombinant human cPLA2): ~60%
Compound: O=c1cc(-c2ccccc2)oc2cc(O)c(O)c(O)c12 [baicalein, reference compound]
